“And” between values parts separate entries of the source, which are not always exact repeats. Equal values may be shown once.

Data on two compounds can be found in patent US12290510B2, “Polyvalent derivatives of emoxypine” (Riesner Verwaltungs GMBH, priority 2019, dated 2025).

For experiment [1], the target named is T1, α-synuclein fibrils (Homo sapiens, UniProt P37840). As to the kind of experiment: Disaggregation of α-synuclein fibrils, thioflavin T (ThT) fluorescence emission at 482 nm. In kind it is biochemical. The method, then: FIG. 1A depicts emission intensity of ThT at 482 nm (λexc=450 nm), in the presence of α-synuclein amyloids fibrils, with and without MHP-tren triimine (r70, light blue trace and yellow trace, respectively) from 1 minute to 3 days (72 h), where the bars from left to right in each set of histograms represents: control ThT; MHP tren-triimine; Aggregates+ThT+MHP tren-triimine; control ThT+MHP tren-triimine; and Aggregates+ThT, respectively.
FIG. 2 depicts emission intensity of ThT at 482 nm (λexc=450 nm), in the presence of α-synuclein amyloids fibrils, using Emoxypine r200, Emoxypine r100, MHP-tren triimine (also known as tri imino-emoxypine) r70 (light blue trace and yellow trace, respectively) from 1 minute to 3 days (72 h), where the bars from left to right in each set of histograms represents: α-synuclein+Emoxypine r200; α-synuclein+Emoxypine r100; and α-synuclein+MHP tren-triimine r70, respectively. The far leftmost bar of the graph, titled “Before addition of SOM” represents a sample without emoxypine or MHP tren-triimine, i.e. with 100% of α-synuclein aggregates left.
Disaggregation of α-synuclein fibrils using MHP-tren triimine (i.e., tri imino-emoxypine) was studied. The ratio of MHP-tren triimine:α-synuclein was 70 (r70).
Fluorescence measurements were performed by comparing the emission of thiovlavin T (ThT) in the presence of aggregates, without and with MHP-tren triimine at different times after the addition of MHP-tren triimine, from one minute to several days (λ emission of interest=482 nm, λ excitation=450 nm). Fluorescent measurements were also performed by comparing the emission of thiovlavin T (ThT) in the presence of aggregates and either emoxypine or MHP-tren triimine. The results (see, FIG. 1A-1B, FIG. 2 and Tables 1-2, below) show higher solubilization percentages using MHP-tren triimine as compared to emoxypine. […] The long-term efficiency of the triimine molecule is therefore better than that of its triamide analogue.

Experiment [2] deals with T1, α-synuclein fibrils. The experiment can be described thus: Scanning electron microscope (SEM) images of α-synuclein fibrils without and with the triimine. The note with it: sample with the triimine molecule (FIG. 3B) vs “superaggregated” structures without (FIG. 3A).

As for `CCc1nc(C)ccc1O` [Emoxypine, emoxypine], the “Percent of Solubilization” value in experiment [1] (r100, 1 min) is listed as 50%; in experiment [1] (r100, 30 min) it was 59%; in experiment [1] (r100, 1 h) it was 48%; in experiment [1] (r100, 24 h) it was 53%; in experiment [1] (r100, 48 h), 49%; in experiment [1] (r100, 72 h), 62%. The “Percent of Solubilization” value in experiment [1] (r200, 1 min) is listed as 69%; in experiment [1] (r200, 30 min), 65%; in experiment [1] (r200, 1 h), 61%; in experiment [1] (r200, 24 h) it was 60%; in experiment [1] (r200, 48 h) it was 61%; in experiment [1] (r200, 72 h), 63%.
Take `Cc1ccc(O)c(/C=N/CCN(CC/N=C/c2nc(C)ccc2O)CC/N=C/c2nc(C)ccc2O)n1` [MHP-tren triimine, tri imino-emoxypine]: the “Appearance of α-synuclein sample in SEM images” value in experiment [2] is recorded as “no apparent fiber or big aggregates-only small dots are visible”. Also, the Percentage of solubilization in experiment [1] (MHP-tren triimine:α-synuclein ratio 70 (r70), 1 min after addition) is 27%; in experiment [1] (r70, 30 min after addition) it was 47.1% and 57%; in experiment [1] (r70, 1 h after addition), 71%; in experiment [1] (r70, 24 h after addition) it was 72.8% and 73%; in experiment [1] (r70, 48 h after addition), 79.5% and 79%; in experiment [1] (r70, 72 h (3 days) after addition), 86% and 86.1%.
